Test results published in ChEMBL document CHEMBL1158661, “Celenamide E, a Tripeptide Alkaloid from the Patagonian Sponge Cliona chilensis” (J Nat Prod, 1998).
Calls of active or inactive are those of the source.

Legend:
Type in all cases: functional, organism-based
Micrococcus luteus = test: Antibiotic activity against Micrococcus luteus at 50 ug/disk
Enterococcus faecalis = test: Antibiotic activity against Enterococcus faecalis at 50 ug/disk
Bacillus subtilis = test: Antibiotic activity against Bacillus subtilis at 50 ug/disk
Staphylococcus aureus = test: Antibiotic activity against Staphylococcus aureus at 50 ug/disk

Measured: Activity

N/C(=C\c1cc(O)c(O)c(O)c1)C(=O)N[C@@H](Cc1c[nH]c2cc(Br)ccc12)C(=O)N/C=C/c1ccc(O)c(O)c1
active: all assays above
